The values that follow come from ChEMBL document CHEMBL4342499, “Novel Stapling by Lysine Tethering Provides Stable and Low Hemolytic Cationic Antimicrobial Peptides” (J Med Chem, 2020).

For one test, the system named is Listeria monocytogenes. Kind of test: Antimicrobial activity against Listeria monocytogenes assessed as inhibition of microbial growth incubated for 16 hrs by microdilution method. The format is functional. For orientation: Broth dilution looks for growth in wells or tubes with falling amounts of substance.
Another test has as its system Pseudomonas aeruginosa. Kind of test: Antimicrobial activity against Pseudomonas aeruginosa assessed as inhibition of microbial growth incubated for 16 hrs by microdilution method. The format is functional.
The test system of test [1] is Escherichia coli.
Test [2] relates to Staphylococcus aureus. Kind of test: Antimicrobial activity against methicillin-resistant Staphylococcus aureus assessed as inhibition of microbial growth incubated for 16 hrs by microdilution method. The format is functional.
Test [3] concerns Escherichia coli. Kind of test: Antimicrobial activity against Escherichia coli assessed as inhibition of microbial growth incubated for 16 hrs by microdilution method. It is filed as functional.
Test [4] concerns Staphylococcus aureus. Kind of test: Antimicrobial activity against Staphylococcus aureus assessed as inhibition of microbial growth incubated for 16 hrs by microdilution method. It is filed as functional.

In the case of `CCN1CCN(C(=O)N[C@@H](C(=O)N[C@@H]2C(=O)N3C(C(=O)O)=C(CSc4nnnn4C)CS[C@H]23)c2ccc(O)cc2)C(=O)C1=O` [CEFOPERAZONE], the MIC99.9 with Listeria monocytogenes was 16 µg/mL; with Pseudomonas aeruginosa it was 2 µg/mL; in the test with Escherichia coli [1] it was more than 128 µg/mL; in the test with Staphylococcus aureus [2], more than 128 µg/mL; in the test on Escherichia coli [3], 0.125 µg/mL; in the test on Staphylococcus aureus [4] it was 0.5 µg/mL.

As for `CN[C@H](CC(C)C)C(=O)N[C@H]1C(=O)N[C@@H](CC(N)=O)C(=O)N[C@H]2C(=O)N[C@H]3C(=O)N[C@H](C(=O)N[C@H](C(=O)O)c4cc(O)cc(O)c4-c4cc3ccc4O)[C@H](O)c3ccc(c(Cl)c3)Oc3cc2cc(c3O[C@@H]2O[C@H](CO)[C@@H](O)[C@H](O)[C@H]2O[C@H]2C[C@](C)(N)[C@H](O)[C@H](C)O2)Oc2ccc(cc2Cl)[C@H]1O` [VANCOMYCIN], the MIC99.9 in the test on Listeria monocytogenes is 1 µg/mL; in the test with Pseudomonas aeruginosa, more than 128 µg/mL; in the test with Escherichia coli [1] it was more than 128 µg/mL; with Staphylococcus aureus [2], 2 µg/mL; with Escherichia coli [3], more than 128 µg/mL; with Staphylococcus aureus [4] it was 2 µg/mL.
